# Data reported in the supplement of paper PMC10331698.
# ± gives the standard deviation of the averaged measurements.
# Key:
# Assay in all cases: level (log10 ratio to DMSO vehicle control); higher = higher biomarker level / cell amount than vehicle control
# [1] = compound: O=S(=O)(Cl)C(F)(F)C(F)(F)C(F)(F)C(F)(F)C(F)(F)C(F)(F)C(F)(F)C(F)(F)F [Perfluoro-1-octanesulfonyl chloride]; conditions: in DMSO
# Experimental: (§1)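 BioMAP Diversity Plus panel of 12 human primary cell co-culture systems (3C, 4H, LPS, SAg, BT, BF4T, BE3C, CASM3C, HDF3CGF, KF3CT, MyoF, Mphg). Compounds were added 1 h before stimulation and left for 24 h (MyoF 48 h; BT 72 h for soluble read-outs or 6 d for IgG). Biomarkers were read by ELISA, cytotoxicity by SRB, PBMC viability and proliferation by Alamar Blue. Each well value was divided by the mean of 8 DMSO control wells on the same plate and log10 transformed; duplicate blinded samples were tested at 4 concentrations.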
# [2] = compound: O=C(O)C(F)(F)C(F)(F)C(F)(F)C(F)(F)C(F)(F)C(F)(F)C(F)(F)C(F)(F)C(F)(F)C(F)F [11-H-Perfluoroundecanoic acid]; conditions: in DMSO
# Experimental: as §1
# [3] = compound: O=C(O)C=CC(F)(C(F)(F)F)C(F)(F)F [3-(Perfluoroisopropyl)-2-propenoic acid]; conditions: in DMSO
# Experimental: as §1
# [4] = compound: FC(F)(F)C(F)(F)C(F)(F)CC1CO1 [1H,1H-Heptafluorobutyl epoxide]; conditions: in DMSO
# Experimental: as §1
# [5] = compound: O=S(=O)(F)C(F)(F)C(F)(F)C(F)(F)C(F)(F)C(F)(F)C(F)(F)C(F)(F)C(F)(F)F [Perfluorooctanesulfonyl fluoride]; conditions: in DMSO
# Experimental: as §1
# [6] = compound: FC(F)(F)C(F)(F)C(F)(F)C(F)(F)C(F)(F)C(F)(F)C(F)(F)I [1-Iodopentadecafluoroheptane]; conditions: in DMSO
# Experimental: as §1
# [7] = compound: NC(=O)C(F)(F)C(F)(F)C(F)(F)C(F)F; conditions: in DMSO
# Experimental: as §1
# [8] = compound: FC(F)(F)C(F)(F)C(F)(F)C(F)(F)C(F)(F)C(F)(F)CC1CO1 [3-(Perfluorohexyl)-1,2-epoxypropane]; conditions: in DMSO
# Experimental: as §1
# [9] = compound: COC(=O)C(F)(F)C(F)(F)OC(F)(C(F)(F)F)C(F)(F)OC(F)=C(F)F [Methyl perfluoro(3-(1-ethenyloxypropan-2-yloxy)propanoate)]; conditions: in DMSO
# Experimental: as §1
# [10] = compound: NC(=O)C(F)(F)C(F)(F)C(F)(F)C(F)(F)C(N)=O [Octafluoroadipamide]; conditions: in DMSO
# Experimental: as §1
# [11] = compound: C=CC(=O)OCC(F)(F)C(F)(F)C(F)(F)COC(=O)C=C [1H,1H,5H,5H-Perfluoro-1,5-pentanediol diacrylate]; conditions: 6700 nM; in DMSO
# Experimental: as §1
# [12] = compound: FC(F)(F)C(F)(F)CNCC(F)(F)C(F)(F)F [Bis(1H,1H-perfluoropropyl)amine]; conditions: in DMSO
# Experimental: as §1
# [13] = compound: NS(=O)(=O)C(F)(F)C(F)(F)C(F)(F)C(F)(F)C(F)(F)C(F)(F)F [Perfluorohexanesulfonamide]; conditions: in DMSO
# Experimental: as §1
# [14] = compound: FC(F)(F)C(F)(F)C(F)(F)CI [Heptafluorobutyl iodide]; conditions: in DMSO
# Experimental: as §1
# [15] = compound: O=S(=O)(O)C(F)(F)C(F)(F)C(F)(F)C(F)(F)C(F)(F)C(F)(F)C(F)(F)C(F)(F)C(F)(F)C(F)(F)F [Sodium perfluorodecanesulfonate]; conditions: in DMSO
# Experimental: as §1
# [16] = compound: C=C(C)C(=O)OCCC(F)(F)C(F)(F)C(F)(F)C(F)(F)C(F)(F)C(F)(F)F [6:2 Fluorotelomer methacrylate]; conditions: in DMSO
# Experimental: as §1
# [17] = compound: O=S(=O)(O)CCC(F)(F)C(F)(F)C(F)(F)C(F)(F)C(F)(F)C(F)(F)F [6:2 Fluorotelomer sulfonic acid]; conditions: in DMSO
# Experimental: as §1
# [18] = compound: NC(=O)C(F)(F)C(F)(F)C(F)(F)C(F)(F)F [Nonafluoropentanamide]; conditions: in DMSO
# Experimental: as §1
# [19] = compound: OCC(F)(F)C(F)(F)C(F)(F)CO [Hexafluoroamylene glycol]; conditions: in DMSO
# Experimental: as §1
test system,measurement,setting,value
MyoF:MMP-1,level (log10),[1]; 6700 nM,-0.013 ± 0.017
same,level (log10),[1]; 20000 nM,-0.0095 ± 0.0092
same,level (log10),[1]; 60000 nM,0.0705 ± 0.061
same,level (log10),[2]; 6700 nM,-0.076 ± 0.021
same,level (log10),[2]; 20000 nM,-0.027 ± 0.04
same,level (log10),[3]; 6700 nM,-0.0205 ± 0.021
same,level (log10),[3]; 20000 nM,-0.031 ± 0.0014
same,level (log10),[3]; 60000 nM,0.006 ± 0.068
same,level (log10),[4]; 6700 nM,0.01 ± 0.013
same,level (log10),[4]; 20000 nM,-0.013 ± 0.051
same,level (log10),[4]; 60000 nM,0.0455 ± 0.1
same,level (log10),[5]; 6700 nM,-0.0275 ± 0.013
same,level (log10),[5]; 20000 nM,-0.011 ± 0.0085
same,level (log10),[5]; 60000 nM,-0.007 ± 0.047
same,level (log10),[6]; 6700 nM,0.145 ± 0.045
same,level (log10),[6]; 20000 nM,0.547 ± 0.018
same,level (log10),[7]; 6700 nM,-0.018 ± 0.038
same,level (log10),[7]; 20000 nM,-0.034 ± 0.02
same,level (log10),[7]; 60000 nM,0.014 ± 0.028
same,level (log10),[8]; 6700 nM,-0.019 ± 0.0085
same,level (log10),[8]; 20000 nM,-0.02 ± 0.017
same,level (log10),[8]; 60000 nM,0.017 ± 0.055
same,level (log10),[9]; 6700 nM,0.021 ± 0.035
same,level (log10),[9]; 20000 nM,0.111 ± 0.084
same,level (log10),[10]; 6700 nM,0.0115 ± 0.036
same,level (log10),[10]; 20000 nM,-0.0085 ± 0.0078
same,level (log10),[10]; 60000 nM,0.0325 ± 0.079
same,level (log10),[11],0.206 ± 0.0028
same,level (log10),[12]; 6700 nM,-0.0065 ± 0.011
same,level (log10),[12]; 20000 nM,-0.01 ± 0.021
same,level (log10),[12]; 60000 nM,0.0245 ± 0.08
same,level (log10),[13]; 6700 nM,-0.0285 ± 0.016
same,level (log10),[13]; 20000 nM,-0.0215 ± 0.0035
same,level (log10),[13]; 60000 nM,0.0495 ± 0.025
same,level (log10),[14]; 6700 nM,-0.022 ± 0.0099
same,level (log10),[14]; 20000 nM,-0.0545 ± 0.0078
same,level (log10),[14]; 60000 nM,-0.0125 ± 0.039
same,level (log10),[15]; 1500 nM,0.038 ± 0.1
same,level (log10),[15]; 4400 nM,-0.022 ± 0.055
same,level (log10),[15]; 13000 nM,-0.012 ± 0.02
same,level (log10),[15]; 40000 nM,0.0165 ± 0.064
same,level (log10),[16]; 6700 nM,0.043 ± 0.0042
same,level (log10),[16]; 20000 nM,0.045 ± 0.04
same,level (log10),[16]; 60000 nM,0.018 ± 0.038
same,level (log10),[17]; 6700 nM,-0.018 ± 0.021
same,level (log10),[17]; 20000 nM,-0.058 ± 0.0042
same,level (log10),[17]; 60000 nM,-0.0145 ± 0.047
same,level (log10),[18]; 6700 nM,-0.035 ± 0.037
same,level (log10),[18]; 20000 nM,-0.02 ± 0.052
same,level (log10),[18]; 60000 nM,-0.0055 ± 0.015
same,level (log10),[19]; 6700 nM,-0.0245 ± 0.011
same,level (log10),[19]; 20000 nM,-0.0525 ± 0.019
same,level (log10),[19]; 60000 nM,-0.0115 ± 0.0092
